# Calls of active or inactive are those of the source. No cut-off for these calls is given here.
# Columns and labels:
# KYSE-30 [1] = test: Upregulation of p-Histone H3 level in human KYSE-30 cells at 5 to 20 nmol/L by Western blot analysis; assay type: functional, cell-based; details: dose 5-20 nmol/L
# KYSE-30 [2] = test: Inhibition of colony formation in human KYSE-30 cells at 4 nmol/L incubated for 7 days by crystal violet staining based analysis; assay type: functional, cell-based; details: time 7.0 day
# [3] = Toxicity in female BALB/c-nu nude mouse xenografted with human KYSE-30 cells assessed as effect on serum creatinine level at 6 to 12 mg/kg, ip administered for 15 days by biochemical analysis; assay type: organism-based; details: in vivo, 360 h, dose 6-12 mg/kg, time 15 day
# [4] = Toxicity in female BALB/c-nu nude mouse xenografted with human KYSE-30 cells assessed as effect on serum blood urea nitrogen level at 6 to 12 mg/kg, ip administered for 15 days by biochemical analysis; assay type: organism-based; details: in vivo, 360 h, dose 6-12 mg/kg, time 15 day
# KYSE-70 cell line [5] = test: Induction of apoptosis in human KYSE-70 cells assessed as early apoptotic cells at 20 nmol/L incubated for 48 hrs by Annexin V-FITC/PI staining based flow cytometry analysis (reference value: 1.78%); assay type: functional
# KYSE-30 [6] = tested on: KYSE-30
# Description: (§1) Antiproliferative activity against human KYSE-30 cells assessed as inhibition of cell proliferation incubated for 48 hrs by MTT assay
# [7] = biological target: T1, Tubulin beta (Homo sapiens) (UniProt P68371+Q9H4B7+Q13509+P04350+Q3ZCM7+P07437+Q13885+Q9BVA1+Q9BUF5+A6NNZ2); test: Binding affinity to beta-tubulin colchicine binding site in human KYSE-70 cells assessed as inhibition of EBI-beta-tubulin adduct band formation at 0 to 10 micromol/L preincubated for 2 hrs followed by EBI addition measured after 2 hrs by EBI competition based Western blotting analysis; assay type: cell-based; details: dose 0-10 µmol/L, time 4.0 hrs
# [8] = biological target: T1, Tubulin beta (Homo sapiens); test: Binding affinity to beta-tubulin colchicine binding site in human KYSE-30 cells assessed as inhibition of EBI-beta-tubulin adduct band formation at 0 to 10 micromol/L preincubated for 2 hrs followed by EBI addition measured after 2 hrs by EBI competition based Western blotting analysis; assay type: cell-based; details: dose 0-10 µmol/L, time 4.0 hrs
# KYSE-30 [9] = test: Induction of morphological changes in human KYSE-30 cells assessed as increase in proportion of dead cells at 5 to 20 nmol/L incubated for 48 hrs by Calcein AM/PI staining based inverted fluorescence microscopic analysis; assay type: functional, cell-based; details: dose 5-20 nmol/L
# KYSE-30 [10] = test: Inhibition of human KYSE-30 cells proliferation at 5 to 20 nmol/L incubated for 48 hrs by real time cellular analysis; assay type: functional, cell-based; details: dose 5-20 nmol/L
# [11] = Toxicity in female BALB/c-nu nude mouse xenografted with human KYSE-30 cells assessed as effect on serum total bilirubin level at 6 to 12 mg/kg, ip administered for 15 days by biochemical analysis; assay type: organism-based; details: in vivo, 360 h, dose 6-12 mg/kg, time 15 day
# KYSE-30 [12] = test: Induction of apoptosis in human KYSE-30 cells assessed as necrotic cells at 10 nmol/L incubated for 48 hrs by Annexin V-FITC/PI staining based flow cytometry analysis (reference value: 1.59 %); assay type: functional
# KYSE-30 [13] = test: Induction of apoptosis in human KYSE-30 cells assessed as early apoptotic cells at 10 nmol/L incubated for 48 hrs by Annexin V-FITC/PI staining based flow cytometry analysis (reference value: 4.38 %); assay type: functional
# KYSE-30 [14] = test: cells; details: Homo sapiens, KYSE-30, 48 h
# Description: as §1
# [15] = Toxicity in female BALB/c-nu nude mouse xenografted with human KYSE-30 cells assessed as change in spleen pathology at 6 to 12 mg/kg, ip administered for 15 days by H and E staining based analysis; assay type: organism-based; details: in vivo, 360 h, dose 6-12 mg/kg, time 15 day
# KYSE-70 cell line [16] = test: Antiproliferative activity against human KYSE-70 cells assessed as inhibition of cell growth incubated for 48 hrs by MTT assay; assay type: functional, cell-based; details: KYSE-70, 48 h
# Tubulin (Homo sapiens) = Tubulin (Homo sapiens) (UniProt P68371+Q9H4B7+P0DPH7+P68366+Q13509+Q71U36+P04350+Q3ZCM7+P07437+P68363+Q9BQE3+Q6PEY2+Q13885+Q9BVA1+Q9BUF5); test: Inhibition of tubulin polymerization in human KYSE-30 cells assessed as reduction in filamentous microtubule structure formation at 5 to 20 nmol/L incubated for 24 hrs by DAPI staining based fluorescence microscopic analysis; assay type: cell-based; details: dose 5-20 nmol/L
# KYSE-30 [17] = test: Antitumor activity against human KYSE-30 cells xenografted in female BALB/c-nu nude mouse assessed as reduction in tumor weight at 6 to 12 mg/kg, ip administered daily for 15 days; assay type: functional, organism-based; details: dose 6-12 mg/kg, time 15.0 day
# HCT-116 = test: cells; details: Homo sapiens, HCT-116, 48 h
# Description: Antiproliferative activity against human HCT-116 cells assessed as inhibition of cell proliferation incubated for 48 hrs by MTT assay
# [18] = Toxicity in female BALB/c-nu nude mouse xenografted with human KYSE-30 cells assessed as change in heart pathology at 6 to 12 mg/kg, ip administered for 15 days by H and E staining based analysis; assay type: organism-based; details: in vivo, 360 h, dose 6-12 mg/kg, time 15 day
# KYSE-30 [19] = test: Induction of apoptosis in human KYSE-30 cells assessed as late apoptotic cells at 10 nmol/L incubated for 48 hrs by Annexin V-FITC/PI staining based flow cytometry analysis (reference value: 5.27 %); assay type: functional
# KYSE-30 [20] = test: Inhibition of cell migration in human KYSE-30 cells at 2 to 6 nmol/L incubated upto 48 hrs by wound healing assay; assay type: functional, cell-based; details: dose 2-6 nmol/L
# KYSE-70 cell line [21] = test: Induction of cell cycle arrest in human KYSE-70 cells assessed as accumulation of cells at G2/M phase at 10 nmol/L by PI staining based flow cytometric analysis; assay type: functional
# KYSE-30 [22] = test: Induction of apoptosis in human KYSE-30 cells assessed as viable cells at 5 nmol/L incubated for 48 hrs by Annexin V-FITC/PI staining based flow cytometry analysis (reference value: 88.76 %); assay type: functional; details: read-out: Activity
# KYSE-70 cell line [23] = test: Induction of apoptosis in human KYSE-70 cells assessed as late apoptotic cells at 10 nmol/L incubated for 48 hrs by Annexin V-FITC/PI staining based flow cytometry analysis (reference value: 3.01%); assay type: functional
# KYSE-70 cell line [24] = test: Inhibition of cell migration in human KYSE-70 cells at 2 to 6 nmol/L incubated upto 48 hrs by wound healing assay; assay type: functional, cell-based; details: dose 2-6 nmol/L
# KYSE-450 = test: Antiproliferative activity against human KYSE-450 cells assessed as inhibition of cell growth incubated for 48 hrs by MTT assay; assay type: functional, cell-based; details: KYSE-450, 48 h
# KYSE-30 [25] = test: Induction of apoptosis in human KYSE-30 cells assessed as viable cells at 10 nmol/L incubated for 48 hrs by Annexin V-FITC/PI staining based flow cytometry analysis (reference value: 88.76 %); assay type: functional; details: read-out: Activity
# [26] = Toxicity in female BALB/c-nu nude mouse xenografted with human KYSE-30 cells assessed as change in kidney pathology at 6 to 12 mg/kg, ip administered for 15 days by H and E staining based analysis; assay type: organism-based; details: in vivo, 360 h, dose 6-12 mg/kg, time 15 day
# KYSE-30 [27] = test: Induction of apoptosis in human KYSE-30 cells assessed as necrotic cells at 5 nmol/L incubated for 48 hrs by Annexin V-FITC/PI staining based flow cytometry analysis (reference value: 1.59 %); assay type: functional
# KYSE-30 [28] = test: Induction of apoptosis in human KYSE-30 cells assessed as late apoptotic cells at 5 nmol/L incubated for 48 hrs by Annexin V-FITC/PI staining based flow cytometry analysis (reference value: 5.27 %); assay type: functional
# [29] = Toxicity in female BALB/c-nu nude mouse xenografted with human KYSE-30 cells assessed as effect on serum ALT level at 6 to 12 mg/kg, ip administered for 15 days by biochemical analysis; assay type: organism-based; details: in vivo, 360 h, dose 6-12 mg/kg, time 15 day
compound,measurement,setting,value
COc1ccc(-c2cnoc2-c2cc(C)nc3ccccc23)cc1,Activity,KYSE-30 [1],Active
same,inhibition,KYSE-30 [2],Active
same,Activity,[3],Non-Toxic
same,Activity,[4],Non-Toxic
same,Activity,KYSE-70 cell line [5],30.31%
same,IC50,KYSE-30 [6],13.1 nM
same,Activity,[7],Active
same,Activity,[8],Active
same,Activity,KYSE-30 [9],Active
same,inhibition,KYSE-30 [10],Active
same,Activity,[11],Non-Toxic
same,Activity,KYSE-30 [12],2.86%
same,Activity,KYSE-30 [13],47.75%
same,IC50,KYSE-30 [14],13 nM
same,Activity,[15],Non-Toxic
same,IC50,KYSE-70 cell line [16],7.79 nM
same,inhibition,Tubulin (Homo sapiens),Active
same,Activity,KYSE-30 [17],Active
same,IC50,HCT-116,26 nM
same,Activity,[18],Non-Toxic
same,Activity,KYSE-30 [19],11.91%
same,inhibition,KYSE-30 [20],Active
same,Activity,KYSE-70 cell line [21],Active
same,viability at 0.005 µM,KYSE-30 [22],38.8%
same,Activity,KYSE-70 cell line [23],14.3%
same,inhibition,KYSE-70 cell line [24],Active
same,IC50,KYSE-450,19.2 nM
same,viability at 0.01 µM,KYSE-30 [25],37.5%
same,Activity,[26],Non-Toxic
same,Activity,KYSE-30 [27],2.61%
same,Activity,KYSE-30 [28],11.99%
same,Activity,[29],Non-Toxic
